{
  "source": "patent US12678509B2",
  "about": "“Inhibitor of apoptosis (IAP) protein antagonists” (Sanford Burnham Prebys Medical Discovery Institute, priority 2019, dated 2026)",
  "key": {"[1]": {"system": "latently infected cell line Jurkat 2D10", "test": "HIV Jurkat 2D10 cells GFP+ assay (reversal of HIV latency)", "format": "cell-based", "method_in_brief": "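Jurkat 2D10 cells exposed to graded doses of test compounds or IAP antagonists (BV-6, SM-164, Birinapant, LCL-161, GDC-0152, AT-406) for 48 hours. GFP expression quantified by flow cytometry. Induction expressed relative to baseline GFP in untreated cells.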"}, "AML-SH-065": {"system": "AML-SH-065", "test": "Cell viability in patient derived AML samples (CellTiterGlo, 72 h)", "format": "cell-based, human", "experimental": "(§1) Patient AML samples were gathered (under IRB 13-6180) from Scripps MD Anderson, La Jolla, CA Fresh blood samples were subjected to gradient density centrifugation with Ficoll-Paque™ PLUS (17-1440-02, GE Healthcare) and peripheral blood mononuclear cells purified as per manufacturer's protocol.\n(§2) 75 nL of 1000× serially diluted IAP inhibitors were spotted in triplicate onto 384-well tissue culture treated plates (Greiner) using a Labcyte Echo acoustic dispensing device. Patient-derived AML cells were maintained in mTeSR1^+1× supplements (Stemcell Technologies) and penicillin/streptomycin/L-glutamine (Omega Scientific Inc.) and Fungizone (HyClone). 25 μL of cell dilution were plated into 384-well plate containing the drugs and incubated for 72 h. Cell viability was assessed by adding 25 μL CellTiterGlo (Promega Corp.) on a Synergy 2 plate reader with Gen5 software (Biotek). % viability was calculated by normalizing luminescence to vehicle only controls (DMSO) in Microsoft Excel and plotted using GraphPad Prism 8. The IC50 values were calculated using log(inhibitor) vs. response—Variable slope (four parameters) equation. (FIG. 6)"}, "AML-SH-075": {"system": "AML-SH-075", "test": "Cell viability in patient derived AML samples (CellTiterGlo, 72 h)", "format": "cell-based, human", "experimental": "as §1, §2"}, "AML-SH-074": {"system": "AML-SH-074", "test": "Cell viability in patient derived AML samples (CellTiterGlo, 72 h)", "format": "cell-based, human", "experimental": "as §1, §2"}, "BxPC3": {"system": "BxPC3", "test": "Cell viability (CellTiter-Glo), 6-day compound treatment", "format": "cell-based, Human", "experimental": "(§3) The compound 18a was tested in 16 different cell lines. For 6-day compound treatment 1700 cells per well were plated in a 384-well plate (Corning #781098) and incubated overnight at 37° C./5% CO2. The following day, compounds in 10-fold dilutions were added to the plates and the plates were incubated for 6 days. Afterwards, 20 μL CellTiter-Glo reagent (Promega, #G7570) was added to each well outside of the incubator and the plates were read for luminescence on a Spark® multimode microplate reader (Tecan). Data was fit in GraphPad Prism 8 to a nonlinear regression curve to determine the IC50 of the compounds."}, "PANC1": {"system": "PANC1", "test": "Cell viability (CellTiter-Glo), 6-day compound treatment", "format": "cell-based, Human", "experimental": "as §3"}, "NCI-H510A": {"system": "NCI-H510A", "test": "Cell viability (CellTiter-Glo), 6-day compound treatment", "format": "cell-based, Human", "experimental": "as §3"}, "MDA-MB-231": {"system": "MDA-MB-231", "test": "Cell viability (CellTiter-Glo), 6-day compound treatment", "format": "cell-based, Human", "experimental": "as §3"}, "MV411": {"system": "MV411", "test": "Cell viability (CellTiter-Glo), 6-day compound treatment", "format": "cell-based, Human", "experimental": "as §3"}, "HL-60": {"system": "HL-60", "test": "Cell viability (CellTiter-Glo), 6-day compound treatment", "format": "cell-based, Human", "experimental": "as §3"}, "[2]": {"test": "Cell viability (CellTiter-Glo), 6-day compound treatment", "format": "cell-based, Human", "settings": "human, HFF cells, 6 d, read-out: Cell viability at max. concentration", "experimental": "as §3"}, "MDA-MB-468": {"system": "MDA-MB-468", "test": "Cell viability (CellTiter-Glo), 6-day compound treatment", "format": "cell-based, Human", "experimental": "as §3"}, "MiaPaCa2": {"system": "MiaPaCa2", "test": "Cell viability (CellTiter-Glo), 6-day compound treatment", "format": "cell-based, Human", "experimental": "as §3"}, "H69AR": {"system": "H69AR", "test": "Cell viability (CellTiter-Glo), 6-day compound treatment", "format": "cell-based, Human", "experimental": "as §3"}, "[3]": {"system": "PBMC or resting CD4+ T cells", "test": "Cytokine release (LEGENDplex Human Inflammation Panel 13-plex)", "format": "cell-based", "settings": "PBMC or resting CD4+ T cells of healthy human donors (FIG. 3)", "experimental": "Compound 18a was also tested for its impact on T cell activation and cytokine release. Peripheral blood mononuclear cells (PBMC) were isolated by Ficoll density gradient centrifugation (Histopaque, Sigma Aldrich) from buffy coats of three healthy human donors (San Diego Blood Bank). Resting CD4^+ T cells were subsequently isolated by negative selection using magnetic beads (Miltenyi Biotec). Cells were treated with compound 18a, or 50 ng/ml Phorbol myristate acetate (PMA) and 1 μM lonomycin, or Dynabeads Human T-Activator CD3/CD28 (ThermoFisher Scientific) at a bead-to-cell ratio of 1:1, or left untreated. Expression of the early and late activation markers CD69 and CD25 on CD4+ T cells was assessed by flow cytometry using a Phycoerythrin-labeled anti-CD69 antibody (BioLegend; Cat #310906) and an Allophycocyanin-labeled anti-CD25 antibody (BioLegend; Cat #302610). Cytokine expression levels in cultures of PBMC or resting CD4+ T cells were analyzed using the LEGENDplex Human Inflammation Panel 13-plex (BioLegend)."}, "NB-4": {"system": "NB-4", "test": "Cell viability (CellTiter-Glo)", "format": "cell-based, Human", "settings": "for IC50: Homo sapiens"}, "[4]": {"settings": "Homo sapiens, 144 h, read-out: IC50 6 d"}},
  "note": "Like-named read-outs stand apart in the source and are kept apart here.",
  "data": [
    {"smiles": "CN[C@@H](C)C(=O)N[C@H]1CCS[C@H]2CC(C)(C)[C@@H](C(=O)N[C@H]3c4ccccc4C[C@H]3OCC#CC#CCO[C@@H]3Cc4ccccc4[C@@H]3NC(=O)[C@H]3N4C(=O)[C@@H](NC(=O)[C@H](C)NC)CCS[C@H]4CC3(C)C)N2C1=O", "note": "[Compound 18a, (2S)-1-{[(4S,7S,9aS)-74{(1S,2R)-2-[(6-{[(1S,2R)-1-({[(4S,7S,9aS)-8,8-Dimethyl-4-{[(2S)-2-(methylammonio)propanoyl]amino}-5-oxooctahydropyrrolo[2,1-b][1,3]thiazepin-7-yl]carbonyl}amino)-2,3-dihydro-1H-inden-2-yl]oxy}hexa-2,4-diyn-1-yl)oxy]-2,3-dihydro-1H-inden-1-yl}carbamoyl)-8,8-dimethyl-5-oxooctahydropyrrolo[2,1-b][1,3]thiazepinyl]amino}-N-methyl-1-oxopropan-2-ammonium dichloride]", "values": [
      {"measurement": "EC50", "setting": "[1]; Homo sapiens, Jurkat, 48 h, read-out: Jurkat 2D10 GFP+ EC50", "result": "1 to 10", "unit": "nM"},
      {"measurement": "efficacy in activating the latently infected cell line", "setting": "[1]; Jurkat 2D10, 48 hours, compared with BV-6, SM-164, Birinapant, LCL-161, GDC-0152, AT-406 (FIG. 1)", "result": "higher efficacy in activating the latently infected cell line than many known compounds"},
      {"measurement": "IC50", "setting": "AML-SH-065; Homo sapiens, 72 h, read-out: AML-SH-065 IC50", "result": "< 10", "unit": "nM"},
      {"measurement": "AML-SH-065 Efficacy", "setting": "AML-SH-065; patient derived AML sample AML-SH-065, 72 h, cell viability at max. concentration", "result": "I (I < 10%)"},
      {"measurement": "IC50", "setting": "AML-SH-075; Homo sapiens, 72 h, read-out: AML-SH-075 IC50", "result": "10 to 100", "unit": "nM"},
      {"measurement": "AML-SH-075 Efficacy", "setting": "AML-SH-075; patient derived AML sample AML-SH-075, 72 h, cell viability at max. concentration", "result": "I (I < 10%)"},
      {"measurement": "IC50", "setting": "AML-SH-074; Homo sapiens, 72 h, read-out: AML-SH-074 IC50", "result": "100 to 1000", "unit": "nM"},
      {"measurement": "AML-SH-074 Efficacy", "setting": "AML-SH-074; patient derived AML sample AML-SH-074, 72 h, cell viability at max. concentration", "result": "I (I < 10%)"},
      {"measurement": "Cell viability at max. concentration", "setting": "BxPC3; BxPC3, 6 d", "result": "III (50%<III<100%)"},
      {"measurement": "IC50", "setting": "BxPC3; Homo sapiens, BXPC-3, 144 h, read-out: IC50 6 d", "result": "1000 to 10000", "unit": "nM"},
      {"measurement": "IC50", "setting": "PANC1; Homo sapiens, PANC-1, 144 h, read-out: IC50 6 d", "result": "< 100000", "unit": "nM"},
      {"measurement": "Cell viability at max. concentration", "setting": "PANC1; PANC1, 6 d", "result": "IV (IV<100%)"},
      {"measurement": "Cell viability at max. concentration", "setting": "NCI-H510A; 6 d", "result": "IV (IV<100%)"},
      {"measurement": "IC50", "setting": "NCI-H510A; [4]", "result": "< 100000", "unit": "nM"},
      {"measurement": "IC50", "setting": "MDA-MB-231; Homo sapiens, MDA-MB-231, 144 h, read-out: IC50 6 d", "result": "100 to 1000", "unit": "nM"},
      {"measurement": "Cell viability at max. concentration", "setting": "MDA-MB-231; MDA-MB-231, 6 d", "result": "I (I<10%)"},
      {"measurement": "IC50", "setting": "MV411; Homo sapiens, MV4-11, 144 h, read-out: IC50 6 d", "result": "100 to 1000", "unit": "nM"},
      {"measurement": "Cell viability at max. concentration", "setting": "MV411; MV411, 6 d", "result": "I (I<10%)"},
      {"measurement": "Cell viability at max. concentration", "setting": "HL-60; HL-60, 6 d", "result": "I (I<10%)"},
      {"measurement": "IC50", "setting": "HL-60; Homo sapiens, HL-60, 144 h, read-out: IC50 6 d", "result": "10 to 100", "unit": "nM"},
      {"measurement": "viability at 6 d", "setting": "[2]", "result": "< 100", "unit": "%"},
      {"measurement": "IC50", "setting": "MDA-MB-468; Homo sapiens, MDA-MB-468, 144 h, read-out: IC50 6 d", "result": "100 to 1000", "unit": "nM"},
      {"measurement": "Cell viability at max. concentration", "setting": "MDA-MB-468; MDA-MB-468, 6 d", "result": "I (I<10%)"},
      {"measurement": "IC50", "setting": "MiaPaCa2; Homo sapiens, MIA PaCa-2, 144 h, read-out: IC50 6 d", "result": "1000 to 10000", "unit": "nM"},
      {"measurement": "Cell viability at max. concentration", "setting": "MiaPaCa2; MiaPaCa2, 6 d", "result": "I (I<10%)"},
      {"measurement": "Cell viability at max. concentration", "setting": "H69AR; 6 d", "result": "I (I<10%)"},
      {"measurement": "IC50", "setting": "H69AR; [4]", "result": "1000 to 10000", "unit": "nM"},
      {"measurement": "cytokine release", "setting": "[3]", "result": "did not induce"},
      {"measurement": "IC50", "setting": "NB-4; NB-4, 72 h, read-out: NB-4 Viability 72 h IC50", "result": "< 10", "unit": "nM"},
      {"measurement": "IC50", "setting": "NB-4; NB-4, 144 h, read-out: IC50 6 d", "result": "< 10", "unit": "nM"},
      {"measurement": "Cell viability at max. concentration", "setting": "NB-4; NB-4, 6 d", "result": "I (I<10%)"}
    ]}
  ]
}
